Reference: patent publication US10201610B2, “Interference peptides and use thereof” (The University of Western Australia, priority 2014, dated 2019)
pIC50: −log10 of the molar value. Ends that are not written are not given here.

Key:
[1] = test system: SUM149PT cells; test: cells; assay type: cell-based, human
From the text: The EN1-iPeps and iPep controls were first tested in SUM149PT cells carrying high EN1 expression. Cells were first treated with a full-length 29-mer peptide (iPep624) comprising the N-terminal, less conserved amino acid sequences, the hexamotif, and the C-terminal tail. As a control, the inventors generated the iPep624ΔHEX in which the hexamotif was mutated from the wild type (wt) WPAWVY (SEQ ID NO: 13) to the GAAGAG (SEQ ID NO: 15) sequence. These mutations were expected to dramatically abolish the activity of the peptide. Both peptides were included in the culture medium of the basal cancer cells in increasing (0-100 μM) concentrations and incubated for 8 hours at 37° C. Treated cells were first analyzed using the Cell Titer Glo assay, which monitors metabolic viability. […] This calculated value of IC50 is in the range of concentrations observed with other peptides delivered with CPPs.
All peptides were synthetized at the UNC High-Throughput Peptide Synthesis and Array Facility at UNC. Taxol, Rotenone and Halofuginone (Sigma-Aldrich, St Louis, Mo.) were dissolved in DMSO. A total of […] or 1×10^3 breast cells for peptide and drug treatment respectively, were seeded in 96-well plates. Cells were exposed for 8 hours to the peptide and 48 to 72 hours for drug treatment. The cell viability after peptide/drug treatment was assayed with the Cell Titer Glo (CTG) assay (Promega, Madison, Wis., USA).

[2] = test system: PBX family members (notably, PBX1); test: Immunoprecipitation and western blotting of TFHDs from SUM149PT extracts; assay type: binding, human; settings: versus control peptide
From the text: (§1) To investigate the binding partners of the iPeps in cancer cells, the inventors carried out affinity capture immunoprecipitation experiments using the biotinylated active iPep624 as bait, and the iPep624ΔHEX as negative control. They used total protein extracts from SUM149PT cells to capture endogenous proteins able to bind these peptides in vitro. Elutes were loaded in a 1D-SDS PAGE gel to visualize the enrichment of individual proteins. […] In addition, overexpression of EN1 cDNA into two different breast cell lines confirmed the interaction of the full length EN1 with the endogenous EPRS inside the cells (FIG. 6c). To ascertain whether some downstream well-known effectors of EPRS were also differentially regulated by the iPeps, we performed real time PCR to detect mRNA levels of COLA1, COLA2, S1004A and DDIT3 (CHOP). […] COLA1 and COLA2 encode collagen proteins highly enriched by the amino acid proline and S1004A is a protein involved in metastasis and fibrosis. […] In contrast, the amino acid stress factor DDIT3 is stimulated upon EPRS inhibition. […]
(§2) The iPep624 and iPep624ΔHEX were coupled to a C-terminal biotin and immobilized in streptavidin-coated beads. […] Detection was performed with ECL Detection System (GE Healthcare) and quantitated using Image J v1.46 (ImageJ, NCBI).

[3] = biological target: T1, PAX6 (Homo sapiens, UniProt P26367); test: as above; assay type: binding; settings: versus control peptide
T1 construct: endogenous in cells; host or cells: SUM149PT total protein extract
T1 sequence (P26367 whole entry): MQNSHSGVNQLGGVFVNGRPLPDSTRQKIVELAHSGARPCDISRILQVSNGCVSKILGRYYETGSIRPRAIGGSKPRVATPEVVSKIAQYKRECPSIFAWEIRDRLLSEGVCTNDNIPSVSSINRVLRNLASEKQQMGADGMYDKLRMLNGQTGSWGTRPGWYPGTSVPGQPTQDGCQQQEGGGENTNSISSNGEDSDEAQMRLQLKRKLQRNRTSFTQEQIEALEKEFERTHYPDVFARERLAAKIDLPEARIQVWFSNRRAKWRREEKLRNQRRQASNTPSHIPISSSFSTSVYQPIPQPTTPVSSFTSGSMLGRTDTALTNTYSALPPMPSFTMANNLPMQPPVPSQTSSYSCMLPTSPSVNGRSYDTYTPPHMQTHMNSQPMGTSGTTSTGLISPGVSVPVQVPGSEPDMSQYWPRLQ
From the text: as §1, §2

[4] = test system: mRNA levels of COLA1, COLA2, S1004A and DDIT3 (CHOP); test: Real time PCR of downstream effectors of EPRS in SUM149PT cells; assay type: cell-based, human
From the text: FIG. 6 EN1-Ipeps binds the endogenous Glutamyl-Prolyl tRNA synthetase (EPRS) target and regulates downstream EPRS effectors in breast cancer cells. (a) EN1-iPep624 (SEQ ID NO: 5) captures and binds EPRS from total extracts of SUM149-PT cells. Affinity-capture immunoprecipitation and western blot detection of EPRS using biotinylated iPeps as bait, and total extracts of SUM149-PT cells. Same input loading of extract is shown in the SDS-PAGE gel on the left. […] The immunoprecipitations were done at least three times and averages and standard errors between experiments are indicated (p<0.01*, p<0.001**). (b) Full length EN1 binds the endogenous EPRS in MDA-MB-231 and SUM149PT cells. Total extracts of MDA-MB-231 and SUM149PT expressing either a full length EN1 cDNA engineered with a N-terminal FLAG tag or an empty-vector control were processed by immunoprecipitation with an anti-FLAG antibody. Immunoprecipitated complexes were blotted with an EPRS-specific antibody to detect endogenous EPRS. The same amount of loaded extracts (INPUT) is shown with anti-tubulin as endogenous control. The enrichment of the immunoprecipitated products was determined by quantification of the bands by densitometry as described above, and data was normalized to iPep624ΔHEX (SEQ ID NO: 18) control. […] Cell viability was determined by a Cell Titer Glo assay and IC50 concentrations determined as described in FIG. 5. […]

## KKKRKVTDSQQPLVWPAWVYCTRYSDRPS [iPep624]
[1]; 8 h
  pIC50: 4.76
[1]; SUM149PT, 0-100 μM peptide, 8 hours
  cell viability: decreased cell viability
[1]; SUM149PT, co-treatment with 500 nM iPep
  sensitization to halofuginone: sensitized even more the basal-like breast cancer cells to halofuginone
[1]; SUM149PT, single agent
  breast cancer cell death: induced very potent breast cancer cell death
[2]
  interaction with PBX family members (notably, PBX1): specific interactions
[3]
  interaction with PAX6: specific interactions
[4]; 15 μM active iPep over control
  DDIT3 mRNA in EN1-overexpressing cells: significantly up-regulated
[4]; 15 μM active peptide
  up-regulation of COLA1, COLA2 and S1004A mRNA in EN1-overexpressing cells: significantly reverted
